From US20250082660A1 (priority 2023, published 2025)
Counter-ions that a name gives are not always drawn. Like-named read-outs stand apart in the source and are kept apart here.

Assays:
[1] = biological target: T1, cytosolic phospholipase A2 (cPLA2, PLA2G4) (Homo sapiens, UniProt P47712); assay: cPLA2 phosphorylation
T1 sequence (P47712 1-749): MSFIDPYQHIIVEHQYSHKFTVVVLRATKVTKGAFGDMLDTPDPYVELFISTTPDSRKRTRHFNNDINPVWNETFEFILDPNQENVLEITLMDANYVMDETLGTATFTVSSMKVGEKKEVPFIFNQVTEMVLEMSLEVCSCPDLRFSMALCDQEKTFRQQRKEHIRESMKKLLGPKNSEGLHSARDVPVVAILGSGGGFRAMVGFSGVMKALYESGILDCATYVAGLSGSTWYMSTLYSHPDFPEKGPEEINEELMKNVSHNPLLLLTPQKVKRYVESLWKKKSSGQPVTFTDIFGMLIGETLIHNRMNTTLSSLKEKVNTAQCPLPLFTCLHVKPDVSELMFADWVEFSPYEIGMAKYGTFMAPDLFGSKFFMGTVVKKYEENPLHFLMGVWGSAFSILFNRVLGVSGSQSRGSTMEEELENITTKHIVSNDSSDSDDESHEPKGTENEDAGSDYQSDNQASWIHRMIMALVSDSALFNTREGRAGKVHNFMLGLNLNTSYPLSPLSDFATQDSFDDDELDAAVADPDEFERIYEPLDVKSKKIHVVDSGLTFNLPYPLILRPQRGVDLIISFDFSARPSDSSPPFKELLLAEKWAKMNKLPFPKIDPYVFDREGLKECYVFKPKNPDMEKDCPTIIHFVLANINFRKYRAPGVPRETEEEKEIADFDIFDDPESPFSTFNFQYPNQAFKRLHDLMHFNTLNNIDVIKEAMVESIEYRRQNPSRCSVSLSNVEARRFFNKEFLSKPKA

CYP1A1 enzyme = biological target: T2, CYP1A1 enzyme (Homo sapiens, UniProt P04798); details: cited from earlier work
T2 sequence (P04798 1-512): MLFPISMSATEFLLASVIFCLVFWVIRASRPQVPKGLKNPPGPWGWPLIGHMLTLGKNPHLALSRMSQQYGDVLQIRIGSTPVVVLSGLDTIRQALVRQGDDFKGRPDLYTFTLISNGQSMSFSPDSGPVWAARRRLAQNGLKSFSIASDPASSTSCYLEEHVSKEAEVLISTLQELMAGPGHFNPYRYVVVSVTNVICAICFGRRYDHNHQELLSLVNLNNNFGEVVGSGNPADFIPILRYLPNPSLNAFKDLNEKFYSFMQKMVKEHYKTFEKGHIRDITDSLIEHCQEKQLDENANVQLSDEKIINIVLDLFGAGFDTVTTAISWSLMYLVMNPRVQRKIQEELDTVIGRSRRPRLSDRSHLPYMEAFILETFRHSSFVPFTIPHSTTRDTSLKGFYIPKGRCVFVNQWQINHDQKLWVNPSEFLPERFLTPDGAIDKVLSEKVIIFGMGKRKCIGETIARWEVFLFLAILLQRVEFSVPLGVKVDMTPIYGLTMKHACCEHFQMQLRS

[2] = cited from earlier work
[3] = tested on: loperamide-induced acute model mice; type: in vivo, C57BL/6J Mus musculus; details: oral loperamide 2.5 mg/kg, 0-9 h after treatment, mean±SEM, n=6
Procedure: Six-week-old male (18-22 g) C57BL/6J Mus musculus were obtained from Laboratory Animal Services Center, The Chinese University of Hong Kong. All mice were housed in an environmentally controlled room (22±1° C.; ˜ 50% relative humidity) with a 12-h light-dark cycle, and fed a normal rodent diet and water. Animal care was approved by the Committee on the Use of Human and Animal Subjects in Teaching and Research, Hong Kong Baptist University (REC/19-20/0300).
Mice were randomly assigned to the following four groups (n=6 per group): control group, loperamide group, loperamide+CDD-2101 group, and loperamide+Senna group. The mice in the control group were only orally treated with Milli-Q water. The other groups were orally administrated with loperamide (2.5 mg/kg body weight). CDD-2101 and Senna were administered based on the clinical dosages of MZRW and Senna, respectively, used in constipation patients. The CDD-2101 group was orally administered with 30 g/d/kg body weight. The Senna group was given 8 tablets/day.
All fecal pellets produced during the first 5 min were discarded. Then fecal samples were collected, and the frequency was recorded for the next 9 h. Fecal pellets were put into tubes set in dry ice. After collection, they were stored at −80° C. for further use. Gastrointestinal motility was calculated from pellet frequency. The secretion was determined by pellet water content.

ALOX5 = biological target: T3, ALOX5 (Homo sapiens, UniProt P09917); details: in vitro and in vivo; cited from earlier work
T3 sequence (P09917 1-674): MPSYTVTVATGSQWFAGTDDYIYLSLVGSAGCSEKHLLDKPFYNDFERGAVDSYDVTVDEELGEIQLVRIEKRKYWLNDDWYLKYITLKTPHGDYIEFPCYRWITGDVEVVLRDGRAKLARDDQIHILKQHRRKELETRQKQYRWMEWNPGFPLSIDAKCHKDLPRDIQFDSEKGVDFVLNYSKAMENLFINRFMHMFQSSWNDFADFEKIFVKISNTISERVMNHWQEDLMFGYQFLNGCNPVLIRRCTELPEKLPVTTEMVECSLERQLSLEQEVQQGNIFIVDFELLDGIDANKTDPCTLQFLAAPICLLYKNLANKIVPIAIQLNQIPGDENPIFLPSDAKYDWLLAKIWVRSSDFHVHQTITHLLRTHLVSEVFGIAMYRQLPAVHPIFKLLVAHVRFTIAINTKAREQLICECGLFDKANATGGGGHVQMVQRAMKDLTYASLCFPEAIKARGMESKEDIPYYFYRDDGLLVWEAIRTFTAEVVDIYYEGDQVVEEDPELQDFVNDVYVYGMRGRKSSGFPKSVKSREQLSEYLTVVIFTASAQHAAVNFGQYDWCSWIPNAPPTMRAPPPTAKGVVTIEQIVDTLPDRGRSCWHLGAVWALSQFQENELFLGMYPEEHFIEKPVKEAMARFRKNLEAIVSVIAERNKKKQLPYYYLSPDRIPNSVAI

CYP1A2 = biological target: T4, CYP1A2 (Homo sapiens, UniProt P05177); details: cited from earlier work
T4 sequence (P05177 1-516): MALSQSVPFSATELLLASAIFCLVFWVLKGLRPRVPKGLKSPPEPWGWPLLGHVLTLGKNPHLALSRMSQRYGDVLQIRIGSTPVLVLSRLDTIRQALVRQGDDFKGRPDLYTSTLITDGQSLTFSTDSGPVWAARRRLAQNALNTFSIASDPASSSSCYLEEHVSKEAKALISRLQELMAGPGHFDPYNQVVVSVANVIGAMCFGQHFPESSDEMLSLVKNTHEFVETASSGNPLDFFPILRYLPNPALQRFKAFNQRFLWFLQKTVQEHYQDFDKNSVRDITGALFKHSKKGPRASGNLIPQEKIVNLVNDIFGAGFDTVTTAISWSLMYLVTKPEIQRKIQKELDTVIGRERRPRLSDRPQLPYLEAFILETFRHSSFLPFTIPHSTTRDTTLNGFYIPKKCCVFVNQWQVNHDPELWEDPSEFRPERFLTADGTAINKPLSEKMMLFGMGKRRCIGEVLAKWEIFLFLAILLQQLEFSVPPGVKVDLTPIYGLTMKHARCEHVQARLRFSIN

[4] = Fecal phytochemistry: metabolism of Senna ingredients; type: in vivo, C57BL/6J Mus musculus; details: Senna group, feces
Excerpt: First, the phytochemical compounds in CDD-2101 and feces were characterized using the UHPLC/Q-TOF-MS with the same parameters as for the metabolomics analysis described in section 1.4. Potential active compounds were selected because of their frequent use in pharmacology study, and their high abundance in CDD-2101 and feces. Those compounds were confirmed by commercial standards. Second, the biological targets of these compounds were gathered by searching in BindingDB (https://www.bindingdb.org/) and STITCH (http://stitch.embl.de/). The candidate targets of constipation were gathered by searching on the keyword “constipation” in GeneCards (https://www.genecards.org/). Third, these targets were manually checked in full texts of relevant references. The confirmed proteins were considered to be the predicted targets of CDD-2101 against constipation.

C[C@]12C[C@@H](O)[C@@H]3C[C@@]1(O[C@@H]1O[C@H](CO)[C@@H](O)[C@H](O)[C@H]1O)[C@@]3(COC(=O)c1ccccc1)C(=O)O2 [albiflorin]
cPLA2 (PLA2G4) phosphorylation [1]: stimulated

COc1ccc([C@@H]2CC(=O)c3c(O)cc(O)cc3O2)cc1O [hesperetin]
binding to CYP1A1 enzyme (CYP1A1 enzyme): bind

COc1ccc([C@@H]2CC(=O)c3c(O)cc(O[C@@H]4O[C@H](CO[C@@H]5O[C@@H](C)[C@H](O)[C@@H](O)[C@H]5O)[C@@H](O)[C@H](O)[C@H]4O)cc3O2)cc1O [hesperidin]
metabolite formed in the colon [2]: hesperetin

CN(C)C(=O)C(CCN1CCC(O)(c2ccc(Cl)cc2)CC1)(c1ccccc1)c1ccccc1 [loperamide, Loperamide hydrochloride]
cumulative number of fecal pellet [3]: 21.5±2.7 pellets/9 h
fecal pellet water content [3]: 48.2±2.1%

C=CCc1ccc(O)c(-c2cc(CC=C)ccc2O)c1 [magnolol]
cPLA2 (PLA2G4) phosphorylation [1]: stimulated
inhibition of ALOX5 enzyme (ALOX5): strongly inhibit
inhibition of CYP1A2 enzyme (CYP1A2): strongly inhibit
binding to CYP1A1 enzyme (CYP1A1 enzyme; reported): bind

O=C1C[C@@H](c2ccc(O)cc2)Oc2cc(O)cc(O)c21 [naringenin]
binding to CYP1A1 enzyme (CYP1A1 enzyme): bind

O=C(O)c1cc(O)c2c(c1)[C@H]([C@H]1c3cc(C(=O)O)cc(O)c3C(=O)c3c(O[C@@H]4O[C@H](CO)[C@@H](O)[C@H](O)[C@H]4O)cccc31)c1cccc(O[C@@H]3O[C@H](CO)[C@@H](O)[C@H](O)[C@H]3O)c1C2=O [sennoside A]
metabolite formed [4]: rhein

O=C(O)c1cc(O)c2c(c1)[C@@H]([C@H]1c3cc(C(=O)O)cc(O)c3C(=O)c3c(O[C@@H]4O[C@H](CO)[C@@H](O)[C@H](O)[C@H]4O)cccc31)c1cccc(O[C@@H]3O[C@H](CO)[C@@H](O)[C@H](O)[C@H]3O)c1C2=O [sennoside B]
metabolite formed [4]: rhein
